Source: ChEMBL document CHEMBL4342401, “Cathepsin B: Active site mapping with peptidic substrates and inhibitors” (Bioorg Med Chem, 2019)
Blank lines part the entries; values can stand above or below the compound they belong to. *1 amine or outer side, *2 acyl side, *3 side chain or, on linkers, in order; H or OH if unused. Where a SMILES comes first, the peptide text is derived from it. [ ]: non-standard residue; d: D form. The star is where a group is joined. X1 = CC(C)C[C@H](N[*:1])C(=O)NC(=O)[C@H]1O[C@@H]1C(=O)[*:2]; N(6-aminohexyl)Gly = O=C(CN(CCCCCCN[*:3])[*:1])[*:2]; Biotin = O=C1N[C@H]2[C@H](CS[C@H]2CCCCC(=O)*)N1

Columns and labels:
Cathepsin B [1] = target: T1, Cathepsin B (Homo sapiens, UniProt P07858); test: Inhibition of human cathepsin B assessed as ratio of Kinact to Ki using Z-Phe-Arg-NH-Mec as substrate incubated for 15 to 90 mins by fluorometric method
Cathepsin B [2] = target: T1, Cathepsin B; test: Inhibition of human liver cathepsin B using Z-Phe-Arg-AMC as substrate incubated for 30 mins by fluorescence based assay
Cathepsin B [3] = target: T1, Cathepsin B; test: Inhibition of cathepsin B (unknown origin) assessed as reduction in 7-amino-4-methylcoumarin formation using Z-Arg-Arg-MCA as substrate preincubated for 3 mins followed by substrate addition and measured after 10 mins by fluorescence spectrometric method
Cathepsin B (Bos taurus) [4] = target: Cathepsin B (Bos taurus) (UniProt P07688); test: Inhibition of bovine spleen cathepsin B assessed as ratio of Kinact to Ki by spectrophotometeric method
Cathepsin B [5] = target: T1, Cathepsin B; test: Inhibition of human liver cathepsin B using Z-Arg-Arg-AMC as substrate preincubated for 15 mins followed by substrate addition and measured after 30 mins by fluorometric method
Cathepsin B (Bos taurus) [6] = target: Cathepsin B (Bos taurus) (UniProt P07688); test: Inhibition of bovine cathepsin B assessed as ratio of Kinact to Ki using Z-Phe-Arg-pNA as substrate by UV/Vis spectrophotometric method
Cathepsin B [7] = target: T1, Cathepsin B; test: Inhibition of recombinant human cathepsin B expressed in baculovirus expression system using Z-Arg-Arg-AMC as substrate incubated for 20 mins by fluorescence based assay

Compound: CC(C)C[C@H](NC(=O)CNC(=O)CNCCCCCCNC(=O)CCCC[C@@H]1SC[C@@H]2NC(=O)N[C@@H]21)C(=O)NC(=O)[C@H]1O[C@@H]1C(=O)N[C@@H](CC(C)C)C(=O)N1CCC[C@H]1C(=O)O (H-[N(6-aminohexyl)Gly](Biotin)G[X1]LP-OH)
Ratio (Cathepsin B [1]): 1.6e+06 M⁻¹ s⁻¹

Compound: CCOC(=O)[C@H]1O[C@@H]1C(=O)N[C@H](C(=O)N1CCC[C@H]1C(=O)O)[C@@H](C)CC
IC50 (Cathepsin B [3]): 2.28 nM

Compound: CCCNC(=O)[C@@H]1O[C@H]1C(=O)N[C@@H](CC(C)C)C(=O)N1CCC[C@H]1C(=O)O
Ratio (Cathepsin B [1]): 29400 M⁻¹ s⁻¹

Compound: CC(C)CCNC(=O)[C@H](Cc1cc(I)c(O)c(I)c1)NC(=O)[C@H]1O[C@@H]1C(=O)O
Ratio (Cathepsin B (Bos taurus) [4]): 105000 M⁻¹ s⁻¹

Compound: CN1CCN(C(=O)N[C@@H](Cc2ccccc2)C(=O)N[C@H](/C=C/S(=O)(=O)c2ccccc2)c2ccc(-c3ccccc3)cc2)CC1
IC50 (Cathepsin B [5]): 300 nM

Compound: CC(=O)N[C@@H](Cc1ccccc1)C(=O)NCC(=O)COC(=O)[C@@H](CC(C)C)NC(=O)OCc1ccccc1
Ratio (Cathepsin B (Bos taurus) [6]): 300 M⁻¹ s⁻¹

Compound: CCOC(=O)[C@@H]1O[C@H]1C(=O)N[C@@H](CC(C)C)C(=O)N1CCC[C@H]1C(=O)O
Ratio (Cathepsin B [1]): 567000 M⁻¹ s⁻¹

Compound: COC(=O)CNC(=O)CNC(=O)[C@H](CC(C)C)NC(=O)[C@H]1O[C@@H]1C(=O)N[C@@H](CC(C)C)C(=O)N1CCC[C@H]1C(=O)O
Ratio (Cathepsin B [1]): 1.52e+06 M⁻¹ s⁻¹

Compound: CCOC(=O)[C@H]1O[C@@H]1C(=O)N[C@@H](CC(C)C)C(=O)N1CCC[C@H]1C(=O)O
Ratio (Cathepsin B [1]): 44400 M⁻¹ s⁻¹

Compound: CC(=O)N[C@@H](Cc1ccccc1)C(=O)NCC(=O)COC(=O)[C@H](CC(C)C)NC(=O)OCc1ccccc1
Ratio (Cathepsin B (Bos taurus) [6]): 2700 M⁻¹ s⁻¹

Compound: CC(C)CCNC(=O)[C@H](Cc1ccccc1)NC(=O)[C@H]1O[C@@H]1C(=O)O
Ratio (Cathepsin B (Bos taurus) [4]): 12300 M⁻¹ s⁻¹

Compound: CCCNC(=O)[C@H]1O[C@@H]1C(=O)N[C@@H](CC(C)C)C(=O)N1CCC[C@H]1C(=O)O
Ratio (Cathepsin B [1]): 152000 M⁻¹ s⁻¹

Continued, values first:

Ki (Cathepsin B [2]): 5 nM
Compound: CC(C)CC(NC(=O)c1cccc(-c2ccncc2)c1)C(=O)N(C)N(C)C#N (racemic)

Ki (Cathepsin B [2]): 0.69 nM
Compound: CC(C)CC(NC(=O)c1ccc(-c2ccc(-c3ccccc3)cc2)cc1)C(=O)N(C)N(C)C#N (racemic)

Ki (Cathepsin B [2]): 2 nM
Compound: CC(C)CC(NC(=O)c1ccc(Br)cc1)C(=O)N(C)N(C)C#N (racemic)

IC50 (Cathepsin B [7]): < 10 nM
Compound: Cc1cccc(C[C@H](NC(=O)c2ccc(Cl)cc2F)C(=O)N[C@H](C#N)COCc2cccc(C(=O)O)c2)c1

IC50 (Cathepsin B [7]): < 10 nM
Compound: CCCCC(=O)N[C@@H](Cc1cccc(C)c1)C(=O)N[C@H](C#N)COCc1cccc(C(=O)O)c1

IC50 (Cathepsin B [7]): < 10 nM
Compound: Cc1cccc(C[C@H](NC(=O)c2ccccc2)C(=O)N[C@H](C#N)COCc2cccc(C(=O)O)c2)c1
